Source: ChEMBL document CHEMBL3045481, “Insecticide-induced resurgence of the whitebacked planthopper Sogatella furcifera (Horvath) (Hemiptera: Delphacidae) on rice varieties with different levels of resistance” (Crop Prot, 2011)
Active and inactive are the calls of the source. The rule behind the calls is not given here.

Key:
Sogatella furcifera [1] = assay: Insecticidal activity against Sogatella furcifera on insect-resistanct rice plant PR116 assessed as resurgence ratio at 0.100% concentration; assay type: functional
Sogatella furcifera [2] = assay: Insecticidal activity against Sogatella furcifera on insect-resistanct rice plant PR116 assessed as nymphal survival at 0.100% concentration (reference value: 70.28%); assay type: functional
Sogatella furcifera [3] = assay: Insecticidal activity against Sogatella furcifera on insect-resistanct rice plant PR116 assessed as hopper population at 0.100% concentration; assay type: functional, organism-based
Oryza sativa [4] = assay: Effect on total protein level in Sogatella furcifera-resistanct Oryza sativa (rice) plant PR116 leaf blade measured per gram of dry weight at 0.100% concentration (reference value: 21.67 mg/g fresh wt); assay type: ADME, organism-based; conditions: in vivo
Sogatella furcifera [5] = assay: Insecticidal activity against Sogatella furcifera on insect-resistanct rice plant PR116 assessed as nymphal duration at 0.100% concentration (reference value: 11.75 days); assay type: functional
Oryza sativa [6] = assay: Effect on total phenols level in Sogatella furcifera-sensitive Oryza sativa (rice) plant ARC6248 leaf sheath measured per gram of dry weight at 0.100% concentration (reference value: 12.75 mg/g dry wt); assay type: ADME, organism-based; conditions: in vivo
Oryza sativa [7] = assay: Effect on total amino acids level in Sogatella furcifera-sensitive Oryza sativa (rice) plant ARC6248 leaf sheath measured per gram of dry weight at 0.100% concentration (reference value: 2.11 mg/g fresh wt); assay type: ADME, organism-based; conditions: in vivo
Oryza sativa [8] = assay: Effect on total protein level in Sogatella furcifera-sensitive Oryza sativa (rice) plant ARC6248 leaf sheath measured per gram of dry weight at 0.100% concentration (reference value: 6.11 mg/g […]); assay type: ADME, organism-based; conditions: in vivo
Oryza sativa [9] = assay: Effect on total sugar level in Sogatella furcifera-resistanct Oryza sativa (rice) plant PR116 leaf blade measured per gram of dry weight at 0.100% concentration (reference value: 36.16 mg/g dry wt); assay type: ADME, organism-based; conditions: in vivo
Oryza sativa [10] = assay: Effect on total phenols level in Sogatella furcifera-resistanct Oryza sativa (rice) plant PR116 leaf sheath measured per gram of dry weight at 0.100% concentration (reference value: 5.75 mg/g dry wt); assay type: ADME, organism-based; conditions: in vivo
Oryza sativa [11] = assay: Effect on total sugar level in Sogatella furcifera-resistanct Oryza sativa (rice) plant PR116 leaf sheath measured per gram of dry weight at 0.100% concentration (reference value: 30.27 mg/g dry wt); assay type: ADME, organism-based; conditions: in vivo
Oryza sativa [12] = assay: Effect on total phenols level in Sogatella furcifera-sensitive Oryza sativa (rice) plant ARC6248 leaf blade measured per gram of dry weight at 0.100% concentration (reference value: 17.08 mg/g dry wt); assay type: ADME, organism-based; conditions: in vivo
Oryza sativa [13] = assay: Effect on total amino acids level in Sogatella furcifera-sensitive Oryza sativa (rice) plant ARC6248 leaf blade measured per gram of dry weight at 0.100% concentration (reference value: 3.54 mg/g fresh wt); assay type: ADME, organism-based; conditions: in vivo
Oryza sativa [14] = assay: Effect on reducing sugar level in Sogatella furcifera-resistanct Oryza sativa (rice) plant PR116 leaf sheath measured per gram of dry weight at 0.100% concentration (reference value: 7.50 mg/g dry wt); assay type: ADME, organism-based; conditions: in vivo
Sogatella furcifera [15] = assay: Insecticidal activity against Sogatella furcifera on insect-sensitive rice plant ARC6248 assessed as resurgence ratio at 0.100% concentration; assay type: functional
Oryza sativa [16] = assay: Effect on reducing sugar level in Sogatella furcifera-sensitive Oryza sativa (rice) plant ARC6248 leaf blade measured per gram of dry weight at 0.100% concentration (reference value: 8.37 mg/g dry wt); assay type: ADME, organism-based; conditions: in vivo
Oryza sativa [17] = assay: Effect on reducing sugar level in Sogatella furcifera-sensitive Oryza sativa (rice) plant ARC6248 leaf sheath measured per gram of dry weight at 0.100% concentration (reference value: 6.41 mg/g dry wt); assay type: ADME, organism-based; conditions: in vivo
Sogatella furcifera [18] = assay: Insecticidal activity against Sogatella furcifera on insect-sensitive rice plant ARC6248 assessed as reproduction at 0.100% concentration; assay type: functional, organism-based
Oryza sativa [19] = assay: Effect on total amino acids level in Sogatella furcifera-resistanct Oryza sativa (rice) plant PR116 leaf blade measured per gram of dry weight at 0.100% concentration (reference value: 3.91 mg/g […]); assay type: ADME, organism-based; conditions: in vivo
Sogatella furcifera [20] = assay: Insecticidal activity against Sogatella furcifera on insect-resistanct rice plant PR116 assessed as growth index at 0.100% concentration (reference value: 6.02%); assay type: functional
Oryza sativa [21] = assay: Effect on total phenols level in Sogatella furcifera-resistanct Oryza sativa (rice) plant PR116 leaf blade measured per gram of dry weight at 0.100% concentration (reference value: 8.08 mg/g dry wt); assay type: ADME, organism-based; conditions: in vivo
Sogatella furcifera [22] = assay: Insecticidal activity against Sogatella furcifera on insect-sensitive rice plant ARC6248 assessed as growth index at 0.100% concentration (reference value: 2.38%); assay type: functional
Oryza sativa [23] = assay: Effect on total amino acids level in Sogatella furcifera-resistanct Oryza sativa (rice) plant PR116 leaf sheath measured per gram of dry weight at 0.100% concentration (reference value: 2.58 mg/g […]); assay type: ADME, organism-based; conditions: in vivo
Sogatella furcifera [24] = assay: Insecticidal activity against Sogatella furcifera on insect-sensitive rice plant ARC6248 assessed as nymphal duration at 0.100% concentration (reference value: 14.48 days); assay type: functional
Oryza sativa [25] = assay: Effect on total sugar level in Sogatella furcifera-sensitive Oryza sativa (rice) plant ARC6248 leaf blade measured per gram of dry weight at 0.100% concentration (reference value: 34.05 mg/g dry wt); assay type: ADME, organism-based; conditions: in vivo
Sogatella furcifera [26] = assay: Insecticidal activity against Sogatella furcifera on insect-sensitive rice plant ARC6248 assessed as nymphal survival at 0.100% concentration (reference value: 34.17%); assay type: functional
Oryza sativa [27] = assay: Effect on total sugar level in Sogatella furcifera-sensitive Oryza sativa (rice) plant ARC6248 leaf sheath measured per gram of dry weight at 0.100% concentration (reference value: 25.98 mg/g dry wt); assay type: ADME, organism-based; conditions: in vivo
Oryza sativa [28] = assay: Effect on reducing sugar level in Sogatella furcifera-resistanct Oryza sativa (rice) plant PR116 leaf blade measured per gram of dry weight at 0.100% concentration (reference value: 9.35 mg/g dry wt); assay type: ADME, organism-based; conditions: in vivo
Oryza sativa [29] = assay: Effect on total protein level in Sogatella furcifera-sensitive Oryza sativa (rice) plant ARC6248 leaf blade measured per gram of dry weight at 0.100% concentration (reference value: 17.67 mg/g […]); assay type: ADME, organism-based; conditions: in vivo
Oryza sativa [30] = assay: Effect on total protein level in Sogatella furcifera-resistanct Oryza sativa (rice) plant PR116 leaf sheath measured per gram of dry weight at 0.100% concentration (reference value: 7.06 mg/g fresh wt); assay type: ADME, organism-based; conditions: in vivo

SMILES | Ratio (Sogatella furcifera [1]) | Survival (Sogatella furcifera [2]) [%] | Activity (Sogatella furcifera [3]) | Activity (Oryza sativa [4]) [mg] | Time (Sogatella furcifera [5]) [days] | Activity (Oryza sativa [6]) [mg] | Activity (Oryza sativa [7]) [mg] | Activity (Oryza sativa [8]) [mg] | Activity (Oryza sativa [9]) [mg] | Activity (Oryza sativa [10]) [mg] | Activity (Oryza sativa [11]) [mg] | Activity (Oryza sativa [12]) [mg] | Activity (Oryza sativa [13]) [mg] | Activity (Oryza sativa [14]) [mg] | Ratio (Sogatella furcifera [15]) | Activity (Oryza sativa [16]) [mg] | Activity (Oryza sativa [17]) [mg] | Activity (Sogatella furcifera [18]) | Activity (Oryza sativa [19]) [mg] | growth inhibition (GI) (Sogatella furcifera [20]) [%] | other results
CCOP(=S)(OCC)Oc1cnc2ccccc2n1 [QUINALPHOS] | 1.31 | 72.22 | inactive | 22.78 | 11.65 | 1308 | 2.38 | 7.22 | 42.05 | 5.67 | 30.27 | 17.08 | 3.61 | 11.31 | 1.13 | 10 | 8.8 | inactive | 4.89 | 6.24 | Activity (Oryza sativa [21]): 6.75 mg; growth inhibition (GI) (Sogatella furcifera [22]): 2.61%; Activity (Oryza sativa [23]): 2.93 mg; Time (Sogatella furcifera [24]): 14.46 days; Activity (Oryza sativa [25]): 38.84 mg; Survival (Sogatella furcifera [26]): 37.5%; Activity (Oryza sativa [27]): 31.87 mg; Activity (Oryza sativa [28]): 13.04 mg; Activity (Oryza sativa [29]): 21.56 mg; Activity (Oryza sativa [30]): 8.5 mg
O=S1OCC2C(CO1)C1(Cl)C(Cl)=C(Cl)C2(Cl)C1(Cl)Cl (stereo not given) [ENDOSULFAN] | <1 | 67.5 | inactive | 18.33 | 12 | 17.08 | 2.46 | 5 | 34.02 | 7.83 | 28.12 | 21.75 | 3.31 | 7.17 | <1 | 7.94 | 5.98 | inactive | 3.38 | 5.66 | Activity (Oryza sativa [21]): 10 mg; growth inhibition (GI) (Sogatella furcifera [22]): 2.24%; Activity (Oryza sativa [23]): 2.4 mg; Time (Sogatella furcifera [24]): 14.5 days; Activity (Oryza sativa [25]): 34.55 mg; Survival (Sogatella furcifera [26]): 32.22%; Activity (Oryza sativa [27]): 30 mg; Activity (Oryza sativa [28]): 8.26 mg; Activity (Oryza sativa [29]): 16.56 mg; Activity (Oryza sativa [30]): 7.78 mg
CCOP(=S)(OCC)Oc1nc(Cl)c(Cl)cc1Cl [CHLORPYRIFOS] | <1 | 69.45 | inactive | 19.44 | 11.75 | 14.08 | 1.75 | 5 | 39.37 | 6.08 | 31.34 | 18.75 | 3 | 7.72 | <1 | 7.5 | 6.31 | inactive | 4 | 5.94 | Activity (Oryza sativa [21]): 7.67 mg; growth inhibition (GI) (Sogatella furcifera [22]): 2.25%; Activity (Oryza sativa [23]): 2.22 mg; Time (Sogatella furcifera [24]): 14.63 days; Activity (Oryza sativa [25]): 33.21 mg; Survival (Sogatella furcifera [26]): 32.5%; Activity (Oryza sativa [27]): 25.98 mg; Activity (Oryza sativa [28]): 9.13 mg; Activity (Oryza sativa [29]): 18.22 mg; Activity (Oryza sativa [30]): 7.72 mg
